Results from US4959368A, “Therapeutic agent for neurological diseases” (Mitsui Petrochemical Industries Ltd., priority 1986, dated 1990).
Read-outs that look alike come from different tables or passages of the source.

How the values were obtained:
[1] = test system: mouse neuroblastoma cell line neuro-2a; test: Activity on neuro-2a, cells with outgrown neurites; type: cell-based
How it was run: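 Mouse neuro-2a cells in DMEM with FCS exposed to compounds for 24 h (up to 6 concentrations, triplicate runs), glutaraldehyde-fixed and methylene blue-stained. Proportion of cells bearing a neurite at least twice the cell's long diameter counted microscopically over ≥200 cells.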

[2] = Acute toxicity, mouse; type: in vivo; conditions: in vivo, po, read-out: Presumed LD50
Experimental: (§1) The acute toxicity of the compounds of the invention was examined by the following method.
(§2) Male ddy-strain 5-week old mice and male Wistar-strain 8 week old rats, five per group, were used as experimental animals. Each of the compounds was dissolved in saline and administered perorally, and the toxicity of the compound was assessed 24 hours after the administration.

[3] = test system: mice; test: Acute toxicity, mouse; type: in vivo; conditions: 24 hours
Experimental: as §1, §2

[4] = test system: human neuroblastoma cell line GOTO; test: Activity on neuroblastoma cell line GOTO (cell number, number and length of neurites); type: cell-based; conditions: for Number of cells: control 3.17
Experimental: The biological activities in vitro of the compounds of formula (I) on cells of the nervous system were tested. The cells tested were human neuroblastoma cell line GOTO [see Sekiguchi, M., Oota, T., Sakakibara, K., Inui, N. & Fujii, G., Japan. J. Exp. Med., 49, 67-83 (1979)], and neuroblastoma cell line NB-1 [see Miyake, S., Shimo, Y., Kitamura, T., Nojyo, Y., Nakamura, T., Imkashuku, S. and Abe, T., The Autonomic Nervous System, 10, 115-120 (1973)], and mouse neuroblastoma cell line neuro-2a (Dainippon Pharmaceutical Co., Ltd.) which have been established as the cells of the nervous system. The above neuve cells were grown in an incubator at 37° C. in the presence of 5% carbon dioxide gas exponentially, and then cultivated for a certain period of time together with the compounds of formula (I).
The effect of the compounds of this invention on neuroblastoma cells was examined by the following method.
A culture medium [composed of 45% of RPMI 1640 medium, 45% modified Eagle's medium (MEM) and 10% of fetal calf serum (FCS) and containing penicillin G sodium (100 units/ml) and streptomycin sulfate (100 microgram/ml)] containing neurobalstoma cell line GOTO in the logarithmic growth period was poured in an amount of 2 ml each into polystyrene dishes (35 mm; made by Corning Co.) so that the cell concentration was 2 to 6×10^4 cells per dish, and the cells were cultured for 1 to 2 days in a carbon dioxide gas incubator containing 5% of carbon dioxide gas in air at 37° C. Then, the culture fluid was removed, and 2 ml of a fresh serum-free culture fluid (consisting of 50% of RPMI medium and 50% of MEM medium and containing penicillin G sodium and streptomycin sulfate in the same amounts as above) was added. At the same time, a presterilized PBS solution (phosphate buffered saline) of each of the test compounds in various concentrations was added to each of the dishes. After culturing for 24 hours, the number of living cells was counted. Furthermore, the culture was photographed, and from the photos, the number and length of neurites per cell were measured. The numer of living cells was counted for 3 to 6 dishes by resistance to staining with erythrosine dye. The number and length of the neurites were measured with regard to 6 photos (more than 200 cells per photo).

O=c1[nH]ccc2nc(N3CCNCC3)ncc12 [Compound 701]
Cells having neurites with a length at least twice the long diameter of cell/total number of cells ([1]; Table 3 Run No. 7, 0.03 mM, control 2.5 ± 0.7): 6.8 ± 0.8% | Cells having neurites with a length at least twice the long diameter of cell/total number of cells ([1]; Table 3 Run No. 7, 0.5 mM, control 2.5 ± 0.7): 42.5 ± 1.8% | Cells having neurites with a length at least twice the long diameter of cell/total number of cells ([1]; Table 3 Run No. 7, 1 mM, control 2.5 ± 0.7): 57.2 ± 1.2% | Cells having neurites with a length at least twice the long diameter of cell/total number of cells ([1]; Table 3 second Run No. 5, 0.1 mM, control 4.5 ± 0.3): 16.2 ± 1.2% | LD50 at 24 h ([2]; Table 6, p.o.): 300 to 550 mg/kg | Number of dead animals/number of test animals ([3]; Table 6, 300 mg/kg p.o.): 0/5 | Number of dead animals/number of test animals ([3]; Table 6, 500 mg/kg p.o.): 3/5 | Number of dead animals/number of test animals ([3]; Table 6, 1000 mg/kg p.o.): 5/5

O=C1Cc2cnc(N3CCNCC3)nc2N1 [Compound 424]
Cells having neurites with a length at least twice the long diameter of cell/total number of cells ([1]; Table 3 first Run No. 5, 0.5 mM, no control given): 12.6 ± 1.1% | Cells having neurites with a length at least twice the long diameter of cell/total number of cells ([1]; Table 3 first Run No. 5, 1 mM, no control given): 27.1 ± 2.1% | LD50 at 24 h ([2]; Table 7, p.o.): > 1000 mg/kg | Number of dead animals/number of test animals ([3]; Table 7, 1000 mg/kg p.o.): 0/5

c1cnc(N2CCNCC2)nc1 [Compound 124]
Cells having neurites with a length at least twice the long diameter of cell/total number of cells ([1]; Table 3 Run No. 1, 3.6 μM, control 2.2 ± 0.8): 4.6 ± 0.5% | Cells having neurites with a length at least twice the long diameter of cell/total number of cells ([1]; Table 3 Run No. 1, 36 μM, control 2.2 ± 0.8): 3.8 ± 1.2% | Number of cells ([4]; Table 1 Run No. 3, 0.0 μg/ml (so in the source)): 4.01 × 10^4 /dish | Number of neurites/cell (mean ± S.D.) ([4]; Table 1 Run No. 3, 1 μg/ml, control 1.94 ± 0.69, all *P <0.01): 2.23 ± 0.82 neurites/cell | Number of cells ([4]; Table 1 Run No. 3, 1 μg/ml): 4.10 × 10^4 /dish | Length of neurites (mean ± S.D.) ([4]; Table 1 Run No. 3, 1 μg/ml, control 45.13 ± 22.71, all *P <0.01): 66.56 ± 22.16 μm/cell | Number of neurites/cell (mean ± S.D.) ([4]; Table 1 Run No. 4, 1 μg/ml, control 1.98 ± 0.74): 2.13 ± 0.72 neurites/cell | Number of cells (mean ± S.E.) ([4]; Table 1 Run No. 4, 1 μg/ml, control 5.48 ± 1.38): 7.22 ± 1.98 × 10^4 /dish | Length of neurites (mean ± S.D.) ([4]; Table 1 Run No. 4, 1 μg/ml, control 54.15 ± 33.64): 72.19 ± 49.23 μm/cell | Number of neurites/cell (mean ± S.D.) ([4]; Table 1 Run No. 4, 10 μg/ml, control 1.98 ± 0.74): 2.08 ± 0.69 neurites/cell | Number of cells (mean ± S.E.) ([4]; Table 1 Run No. 4, 10 μg/ml, control 5.48 ± 1.38): 5.45 ± 2.61 × 10^4 /dish | Length of neurites (mean ± S.D.) ([4]; Table 1 Run No. 4, 10 μg/ml, control 54.15 ± 33.64): 71.31 ± 45.67 μm/cell | Number of neurites/cell (mean ± S.D.) ([4]; Table 1 Run No. 5, 1 μg/ml, control 1.96 ± 0.64): 1.96 ± 0.54 neurites/cell | Number of cells (mean ± S.E.) ([4]; Table 1 Run No. 5, 1 μg/ml, control 5.30 ± 0.23): 4.89 ± 0.59 × 10^4 /dish | Length of neurites (mean ± S.D.) ([4]; Table 1 Run No. 5, 1 μg/ml, control 46.41 ± 33.28): 52.59 ± 32.50 μm/cell | LD50 at 24 h ([2]; Table 6, p.o.): 550 to 1000 mg/kg | Number of dead animals/number of test animals ([3]; Table 6, 300 mg/kg p.o.): 0/5 | Number of dead animals/number of test animals ([3]; Table 6, 500 mg/kg p.o.): 0/5 | Number of dead animals/number of test animals ([3]; Table 6, 1000 mg/kg p.o.): 3/5

CCn1cc(C=O)c2nc(N3CCNCC3)ncc2c1=O [Compound 744]
LD50 at 24 h ([2]; Table 6, p.o.): 550 to 1000 mg/kg | Number of dead animals/number of test animals ([3]; Table 6, 500 mg/kg p.o.): 0/5 | Number of dead animals/number of test animals ([3]; Table 6, 1000 mg/kg p.o.): 3/5

COCCN1C(=O)Cc2cnc(N3CCNCC3)nc21 [Compound 428]
Cells having neurites with a length at least twice the long diameter of cell/total number of cells ([1]; Table 3 Run No. 3, 0.03 mM, control 3.9 ± 0.3): 6.7 ± 1.5% | Cells having neurites with a length at least twice the long diameter of cell/total number of cells ([1]; Table 3 Run No. 3, 0.3 mM, control 3.9 ± 0.3): 17.3 ± 0.8% | Cells having neurites with a length at least twice the long diameter of cell/total number of cells ([1]; Table 3 Run No. 3, 1 mM, control 3.9 ± 0.3): 30.1 ± 2.4% | Cells having neurites with a length at least twice the long diameter of cell/total number of cells ([1]; Table 3 Run No. 4, 0.1 mM, control 3.1 ± 0.2): 13.7 ± 2.1% | Cells having neurites with a length at least twice the long diameter of cell/total number of cells ([1]; Table 3 Run No. 4, 0.5 mM, control 3.1 ± 0.2): 27.2 ± 3.1% | Cells having neurites with a length at least twice the long diameter of cell/total number of cells ([1]; Table 3 Run No. 4, 1 mM, control 3.1 ± 0.2): 29.1 ± 2.4% | Cells having neurites with a length at least twice the long diameter of cell/total number of cells ([1]; Table 3 second Run No. 5, 0.3 mM, control 4.5 ± 0.3): 9.8 ± 2.3% | Cells having neurites with a length at least twice the long diameter of cell/total number of cells ([1]; Table 3 second Run No. 5, 0.5 mM, control 4.5 ± 0.3): 14.1 ± 1.5% | Cells having neurites with a length at least twice the long diameter of cell/total number of cells ([1]; Table 3 second Run No. 5, 1 mM, control 4.5 ± 0.3): 15.6 ± 1.0% | LD50 at 24 h ([2]; Table 7, p.o.): > 1000 mg/kg | Number of dead animals/number of test animals ([3]; Table 7, 1000 mg/kg p.o.): 0/5

Cc1nc(N2CCNCC2)nc2c1CC(=O)N2C [Compound 468]
Cells having neurites with a length at least twice the long diameter of cell/total number of cells ([1]; Table 3 Run No. 10, 0.3 mM, control 1.7 ± 0.7): 5.8 ± 0.8% | Cells having neurites with a length at least twice the long diameter of cell/total number of cells ([1]; Table 3 Run No. 10, 1 mM, control 1.7 ± 0.7): 15.7 ± 0.5% | LD50 at 24 h ([2]; Table 7, p.o.): > 1000 mg/kg | Number of dead animals/number of test animals ([3]; Table 7, 1000 mg/kg p.o.): 1/5
